Measured values published in US4239901A, “Pyrazol-1-ylphenylacetic acids” (Byk Gulden Lomberg Chemische Fabrik GmbH, priority 1976, dated 1980).
Like-named read-outs stand apart in the source and are kept apart here.

Columns and labels:
[1] = tested on: carrageenin oedema of rat hind paw; experiment: Inhibition of carrageenin oedema of rat hind paw; details: for ED40 / inhibition at 100 mg/kg: Rattus norvegicus; for ED40: po, read-out: Inhibition of carrageenin oedema of rat hind paw by 40% (=ED40) after single oral dose; for inhibition at 100 mg/kg: read-out: oedema inhibition; for Therapeutic Quotient LD50/ED40: Table 2, LD50 mouse i.p. / ED40 rat oral
Experimental: The influence of the compounds which were to be tested on carrageenin oedema of rat hind paw was determined as follows:
Female Sprague-Dawley rats (groups of, in each instance, 10 animals; weight of each animal 140-170 g) from which food (Altromin®R, water ad libitum) is withheld about 16 hours beforehand are each injected subplantarly in the right hind paw with 0.05 ml of a 1% strength carrageenin suspension 1 hour after oral administration of the compounds which are to be tested. The rats are kept at 24° C.
The determination of the paw volume of each rat (in each case, 2-3 individual measurements) is effected plethysmometrically before and 2 and 4 hours after oedema provocation.
As measure for the antiphlogistic effect there serves the average percentage oedema inhibition (i.e. the average from the measured values obtained 3 and 5 hours after administration of the substance).
The determination of the paw volume is effected plethysmometrically. Measuring principle: the liquid volume displaced by the rat paw is registered digitally via an electromechanical pressure converter (Statham P 23 V, 0-200 mm Hg).
The stated doses of the medicaments tested were administered in a liquid volume of 20 ml/kg.

in vivo = details: mouse, ip
mouse = details: for Toxicity after single intraperitoneal administration in the mouse LD50: Table 6, single i.p.; for Toxicity after single intraperitoneal administration to the mouse LD50: Table 5, single i.p.; for Lethal effect LD50 after single intraperitoneal administration to the mouse: Table 3, single i.p.; for LD50 after a single administration mouse: Table 4, single i.p.
yeast fever of the rat = experiment: Antipyretic effect, yeast fever of the rat; format: in vivo, rat (female Sprague-Dawley); details: read-out: Antipyretic effect ED0.75 (dose which lowers the yeast fever of the rat by 0.75° C.)
Experimental: The antipyretic effect is determined from the influence of the compounds to be tested on the yeast fever of the rat.
In female Sprague-Dawley rats (in each series of experiments, 30 rats in groups of 5 animals; animal weight 170-200 g) a hyperthermia is produced through subcutaneous injection (neck) of 20 ml/kg of a 20% strength aqueous brewer's yeast suspension (brewers' yeast "Heliosan"/Hefereformwerk Radolfzell). 24 hours after the yeast injection, the body temperature is measured rectally at hourly intervals.
After a preliminary measurement the compounds which are to be tested are administered to the animals orally in a liquid volume of 5 ml/kg; a control group receives the corresponding amount of tap water. Food (Altromin®R, water ad libitum) was withheld from the rats 18 hours beforehand. The rats are kept at about 23° C.
As measure for the antipyretic effect there serves the maximum lowering of temperature (with reference to the temperature of the preliminary measurement, i.e. immediately before administration of the substance) in the course of 4 hours. The body temperature is measured with a Iastomed H (Braun electronic).

[2] = tested on: adjuvant arthritis in the rat (Mycobacterium butyricum); experiment: Anti-arthritic effect (adjuvant arthritis); format: in vivo, rat (male Sprague-Dawley); details: Table 4, LD50 mouse i.p. / ED25 rat oral
Experimental: In imitation of the method described by NEWBOULD and PERRINE et al. [NEWBOULD, B. B.; Brit. […] Pharmacodyn. […] Antiphlogistic agents inhibit this swelling reaction.
Male Sprague-Dawley rats (150-190 g) are each injected intradermally into the tail root on day zero with 0.1 ml/animal of a 0.5% strength Myobact. butyrum/paraffin oil suspension. […] On the 17th day after administration of adjuvant, all positively-reacting animals (paw volume increase at least 30%) are selected and concentrated in groups of 10 animals with equal paw volume distribution.
The compounds to be tested are now administered on the following 5 days, that is to say from the 17th to the 21st day after administration of adjuvant, once daily orally in 10 ml/kg of liquid.
As measure for the anti-arthritic effect there serves the decrease of the paw swelling on the 21st day after the administration of adjuvant, referred in each case to the paw swelling of the control group (=100%); the paw volume is determined plethysmometrically.

[3] = tested on: pain reaction provoked in the rat through bending of an inflamed ankle joint; experiment: Analgesic effect, pain reaction provoked through bending of an inflamed ankle joint (AgNO3 inflammation); details: for ED25: Rattus norvegicus, po, read-out: Analgesic effect ED25 (= dose which in 25% of the animals completely suppresses the pain reaction); for Therap. Quotient LD50/ED25: Table 5, LD50 mouse i.p. / ED25 rat oral, analgesic
Experimental: The influence of the compounds which were to be tested on the pain reaction provoked in the rat through bending of an inflamed tarsal joint (AgNO3 inflammation) was determined as follows:
In imitation of HOFFMEISTER et al [Arzneim.Forsch. […] The animals are kept at 24° C. and receive as food Altromin®R and water ad libitum. […] All the positively-reacting animals are concentrated in groups of 10 animals. The compounds which are to be tested are administered orally in a liquid volume of 20 ml/kg 1 hour before the AgNO3 application; the untreated control animals receive the corresponding amount of tap water.
Within 5 hours after administration of the substance the number of reacting animals is ascertained at hourly intervals.
As measure for the analgesic effect there serves the maximum % proportion of the protected animals within 5 hours after administration of the substance [referred to the number of reacting animals of the control group (=100%)]

[4] = tested on: granulation tissue formation in the rat; details: Table 3; for Therapeutic Quotient LD50/ED20: LD50 mouse i.p. / ED20 rat oral
Experimental: Test procedure for the investigation of the influence of the compounds which are to be tested on granulation tissue formation after cotton-wool implantation in the rat (so-called cotton pellet method):
Closure of the skin cut is effected by means of clips.
On seven consecutive days the compounds which are to be tested (as sodium salt in aqueous solution) or the corresponding amount (5 ml/kg/day) of tap water (=control group) are administered orally daily.
On the eighth day the animals are killed, the cotton-wool granulomata are cautiously freed without cutting, i.e. preserving the fibrous capsule, dried (15 hours at 120° C.) and weighed. By deducting the weight component of the cotton-wool pellets the amount of newly formed granulation tissue is obtained.
As measure for the anti-proliferative effect of a compound there serves the percentage lessening of the average granuloma dry weight of a treated group (=16 granulomata) compared to the control group (=100%).

| SMILES | ED40 [1] [mg/kg] | inhibition at 100 mg/kg [1] [%] | LD50 (in vivo) [mg/kg] | Therapeutic Quotient LD50/ED40 [1] | Toxicity after single intraperitoneal administration in the mouse LD50 (mouse) [mg/kg i.p.] | ED (0.75 degC) (yeast fever of the rat; Table 6, rat, oral) [mg/kg] | Therapeutic Quotient LD50/ED25 [2] | ED25 [3] [mg/kg] | Therap. Quotient LD50/ED25 [3] | Therapeutic Quotient LD50/ED20 [4] | Inhibition of granulation tissue formation after subcutaneous cotton-wool implantation by 20% (=ED20) in the rat after 7-day oral administration [4] | Toxicity after single intraperitoneal administration to the mouse LD50 (mouse) [mg/kg i.p.] | Lethal effect LD50 after single intraperitoneal administration to the mouse (mouse) [mg/kg i.p.] | LD50 after a single administration mouse (mouse) [mg/kg i.p.] | ED (0.75 degC) (yeast fever of the rat; po) [mg/kg] |
| --- | --- | --- | --- | --- | --- | --- | --- | --- | --- | --- | --- | --- | --- | --- | --- |
| CN1N=C(c2ccc(CC(=O)O)cc2)CC1c1ccccc1 (stereo not drawn) [XIII, 4-(1-methyl-5-phenyl-2-pyrazoline-3-yl)phenylacetic acid, reference compound] | > 100 | 25 |  |  |  |  |  |  |  |  |  |  |  |  |  |
| O=C(O)Cc1ccc(-c2cc(-c3ccccc3)n(-c3ccccc3)n2)cc1 [XII, 4-(1,5-diphenyl-pyrazol-3-yl)phenylacetic acid, reference compound] | 63 |  | 200 | 3 |  |  |  |  |  |  |  |  |  |  |  |
| O=C(O)Cc1ccc(-n2cccn2)cc1 [VIII, 4-(pyrazol-1-yl)phenylacetic acid] | 8 |  | 1200 | 150 | 1200 | 32 |  |  |  |  |  |  |  |  |  |
| CC(C(=O)O)c1ccc(-n2cc(Br)cn2)c(Cl)c1 (stereo not drawn) [V, 2-[3-chloro-4-(4-bromopyrazol-1-yl)phenyl] acid] | 2 |  | 325 | 163 |  | 5 | 1625 | 0.8 | 406 | ~ 32.5 | ~ 10 mg/kg/die |  |  |  |  |
| CC(C(=O)[O-])c1cc(Cl)c(-n2cccn2)cc1Cl.[Na+] (stereo not drawn) |  |  | 1050 |  |  |  |  | 2.5 | 420 |  |  |  |  |  |  |
| Cn1nc(-c2ccc(CC(=O)O)cc2)cc1-c1ccccc1 [XI, 4-(1-methyl-5-phenylpyrazol-3-yl)phenylacetic acid, reference compound] | > 100 | 25 | 430 | < 4 |  |  |  |  |  |  |  |  |  |  |  |
| O=C(O)Cc1ccc(-n2cc(Br)cn2)cc1 [III, 4-(4-bromopyrazol-1-yl)phenylacetic acid] | 4 to 5 |  | 550 | 122 | 550 | 20 |  | 1.2 | 458 |  |  | 550 |  |  |  |
| CC(C(=O)O)c1cc(Cl)c(-n2cc(Br)cn2)cc1Cl (stereo not drawn) [VII, 2-[2,5-dichloro-4-(4-bromopyrazol-1-yl)phenyl]propionic acid] |  |  | 285 |  |  |  |  | 1.2 | 238 |  |  |  |  |  |  |
| O=C(O)Cc1ccc(-n2cc(Cl)cn2)c(Cl)c1 [IV, 3-chloro-4-(4-chloropyrazol-1-yl)phenylacetic acid] | 2 |  | 460 | 230 |  |  | 657 | 2.5 | 184 | 23.0 | 20 mg/kg/die | 460 | 460 | 460 |  |
| O=C(O)Cc1ccc(-n2cc(Cl)cn2)cc1 [II, 4-(4-chloropyrazol-1-yl)phenylacetic acid] | 8 |  | 460 | 58 |  |  |  |  |  |  |  |  |  |  |  |
| CC(C(=O)O)c1ccc(-n2cc(Cl)cn2)c(Cl)c1 (stereo not drawn) [I, 2-[3-chloro-4-(4-chloropyrazol-1-yl)phenyl]-propionic acid] | 5 |  | 325 | 65 | 325 | 3.5 | 1625 | 0.4 | 813 | 108.3 | 3 mg/kg/die | 325 | 325 | 325 |  |
| COc1ccc2c(c1)c(CC(=O)O)c(C)n2C(=O)c1ccc(Cl)cc1 [X, indomethacin, reference compound] | 4 |  | 45 | 11 | 45 |  | 450 | 0.3 | 150 | 12.8 | 3-5 mg/kg/die | 45 | 45 | 45 | 2.5 |
| CCCCC1C(=O)N(c2ccccc2)N(c2ccccc2)C1=O [IX, phenylbutazone, reference compound] | 40 |  |  |  |  | 15 |  | 2 |  |  | 100 mg/kg/die |  |  |  |  |
